Oligonucleotides are written 5' to 3', each unit as a sugar letter and its base; * is a phosphorothioate linkage, no mark a phosphodiester; rarer units and linkages stand in square brackets, end groups in braces. Plain capitals give the bases only. r = 2'-OH (RNA); f = 2'-fluoro
T1: chymase (recombinant, manufactured by SIGMA) (Homo sapiens, UniProt P23946)
T1 construct: purchased SIGMA
T1 sequence (P23946 22-247): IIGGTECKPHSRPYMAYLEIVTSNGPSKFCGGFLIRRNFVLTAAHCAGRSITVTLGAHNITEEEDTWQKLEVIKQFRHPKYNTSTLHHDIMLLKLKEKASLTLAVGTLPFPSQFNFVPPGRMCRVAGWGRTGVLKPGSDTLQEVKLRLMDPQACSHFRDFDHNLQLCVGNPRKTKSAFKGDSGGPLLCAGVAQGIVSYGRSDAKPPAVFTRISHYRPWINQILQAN

T2: chymase purified from human skin mast cell (native, Calbiochem) (Homo sapiens, UniProt P23946)
T2 construct: Here, the native is chymase purified from human skin mast cell; purchased Calbiochem; host or cells: human skin mast cell (tissue-derived)
T2 sequence (P23946 22-247): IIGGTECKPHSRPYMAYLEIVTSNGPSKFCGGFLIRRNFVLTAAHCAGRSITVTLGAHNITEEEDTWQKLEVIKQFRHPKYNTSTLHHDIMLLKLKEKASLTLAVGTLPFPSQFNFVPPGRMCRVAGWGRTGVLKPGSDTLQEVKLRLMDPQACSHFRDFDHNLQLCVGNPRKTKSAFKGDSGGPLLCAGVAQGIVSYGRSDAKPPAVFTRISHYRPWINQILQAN


Target: T1, chymase (recombinant, manufactured by SIGMA)
Assay: chymase enzyme activity inhibition, synthetic substrate Suc-Ala-Ala-Pro-Phe-MCA
Type: biochemical
Conditions: Table 5; MCA substrate, amount of chymase 0.005 μg instead of 0.05 μg; one measurement
Protocol: A first method employs a synthetic substrate. A useful chymase substrate is Suc-Ala-Ala-Pro-Phe-MCA (4-methylcoumaryl-7-amide group) (manufactured by Peptide Institute, Inc.), which contains the 4-amino acid peptide “Ala-Ala-Pro-Phe” (SEQ ID NO: 41), a standard substrate for chymotrypsin-like proteases.
The assay is performed using a 96-well plate (F16 Black Maxisorp Fluoronunc, manufactured by Nunc), with a reaction mixture volume of 100 μL, in a buffer solution (solution C; see Example 2 below). First, each nucleic acid is prepared in solution C to obtain 50 μL solutions. After 10 μL of the 1 mM substrate prepared in solution C is added, the plate is set to the microplate reader SpectraMax190 (manufactured by Molecular Devices Corporation), and incubated at 37° C. for 5 minutes. Separately, 0.05 μg of chymase (recombinant, manufactured by SIGMA) is diluted in solution C, and 40 μL of this dilution is incubated at 37° C. for 5 minutes. The chymase solution is added to the mixture of the nucleic acid and substrate to initiate an enzyme reaction. The plate containing the reaction mixture is set to the microplate reader SpectraMax190 (manufactured by Molecular Devices Corporation), and examined for time-dependent changes in the fluorescence intensity at 37° C. for 5 minutes (excitation wavelength 380 nm, detection wavelength 460 nm). A linear approximation of the increase in the fluorescence of the AMC (7-amino-4-methylcoumarine) released from the substrate by chymase activity is generated, and its slope is taken as the initial reaction velocity. For control, samples are treated and analyzed in the same manner in two cases: use of a nucleic acid pool containing a random sequence of 30 or 40 nucleotides (negative control), and use of chymostatin, a known chymotrypsin-like serine protease inhibitor (positive control). Taking the initial reaction velocity without the nucleic acid and inhibitor as a 100% enzyme activity, the inhibitory rate for each test substance is calculated, and the inhibitor concentration required to cause a 50% inhibition of the enzyme activity (IC50) is determined.
Whether the nucleic acids shown by SEQ ID NO: 1-8 inhibit the enzyme activity of chymase was determined as described below. The chymase substrate used was Suc-Ala-Ala-Pro-Phe-MCA (manufactured by Peptide Institute, Inc.), which contains the 4-amino-acid peptide Ala-Ala-Pro-Phe, a standard substrate for chymotrypsin-like proteases. Here, Suc is a protecting succinyl group, and MCA is a 4-methylcoumaryl-7-amide group; upon cleavage of the C-terminal side of phenylalanine, AMC (7-amino-4-methylcoumarine) is released. By detecting the fluorescence of this AMC, the enzyme activity of chymase can be determined. The assay was performed using a 96-well plate (F16 Black Maxisorp Fluoronunc, manufactured by Nunc), with a reaction mixture volume of 100 μL, in solution C as a buffer solution. Here, the solution C is a mixed solution of 145 mM sodium chloride, 5.4 mM potassium chloride, 1.8 mM calcium chloride, 0.8 mM magnesium chloride, 20 mM Tris (pH 7.6), and 0.05% Tween20. First, nucleic acid was serially diluted in solution C to obtain 50 μL solutions. After 10 μL of the 1 mM substrate prepared in solution C was added thereto, the plate was set to the microplate reader SpectraMax190 (manufactured by Molecular Devices Corporation), and incubated at 37° C. for 5 minutes. […] The chymase solution was added to the mixture of the nucleic acid and substrate to initiate an enzyme reaction. The final chymase concentration in the reaction mixture was 16.7 nM, the final substrate concentration being 100 μM. The plate containing the reaction mixture was set to the microplate reader SpectraMax190 (manufactured by Molecular Devices Corporation), and examined for time-dependent changes in the fluorescence intensity at 37° C. for 5 minutes (or 30 minutes) (excitation wavelength 380 nm, detection wavelength 460 nm). […]

Row | Molecule | IC50
1 | 24 (GGCAGAUGAUCGGACAUAACAUAGAUAGAGUUAAAAUGGGGUGUCAA; 2'-fluoro at CU, RNA at AG, backbone not given here) [compound 24] | 3.7 nM
2 | 23 (GGCAGAUGAUCGGACAUAACAGUAGAUAGAGUUAAAACUGGGGUGUCAA; 2'-fluoro at CU, RNA at AG, backbone not given here) [compound 23] | 7.8 nM

Target: T2, chymase purified from human skin mast cell (native, Calbiochem)
Assay: chymase enzyme activity inhibition, native substrate angiotensin I (His-Leu fluorescence)
Type: biochemical
Conditions: Table 2; substrate angiotensin I 50 μM, chymase 0.5 nM, 37° C. 90 min; mean of 2 or 3 measurements
Protocol: A second method of evaluation employs a native substrate. A useful native substrate for chymase is angiotensin I. Here, His-Leu, a peptide fragment released upon degradation of angiotensin I, is fluorescently derivatized, and the fluorescence intensity therefrom is quantified.
In the assay, an enzyme reaction is carried out in 50 μL of solution C. First, 0.3-0.75 ng of chymase (recombinant, manufactured by SIGMA; or native, manufactured by Calbiochem) is diluted in solution C to obtain 5 μL chymase solution. Each nucleic acid is prepared in solution C to obtain 25 μL solutions. 5 μL of each chymase dilution and 25 μL of each nucleic acid solution are mixed, and then the mixture is incubated at 37° C. for 5 minutes. Separately, 20 μL of 125 μM angiotensin I (manufactured by Peptide Institute, Inc.) is prepared in solution C and incubated at 37° C. for 5 minutes. The angiotensin I solution is added to the mixture of chymase and nucleic acid, and the enzyme reaction is initiated. After the reaction was allowed to proceed at 37° C. for 90 minutes, 25 μL of ice-cooled 30% trichloroacetic acid solution is added to terminate the reaction. The entire mixture is centrifuged at 4° C., 14000 rpm for 10 minutes, and 30 μL of the resulting supernatant is used for the subsequent reaction for fluorescent derivatization.
After 30 μL of the supernatant is added to a 96-well plate (Black, manufactured by Costar), 15 μL of 2% o-phthalaldehyde (manufactured by SIGMA) solution in methanol and 170 μL of 0.3M NaOH solution are mixed in each well, and the plate is allowed to stand at room temperature for 10 minutes. Subsequently, 25 μL of 3M HCl solution is added to terminate the reaction. The plate is set to the microplate reader SpectraMax190 (manufactured by Molecular Devices Corporation), and the fluorescence intensity is determined at an excitation wavelength of 355 nm and a fluorescence wavelength of 460 nm.
For control, samples are treated and analyzed in the same manner in two cases: use of SEQ ID NO: 58 (negative control) and use of chymostatin, a known chymotrypsin-like serine protease inhibitor (positive control). In both cases, fluorescence intensity obtained at 0 minute reaction time serves as a blank determination. Taking the fluorescence intensity detected with the addition of an equal volume of solution C, in place of each nucleic acid, in the chymase enzyme reaction as 100%, the inhibitory rate for each test substance is calculated, and the inhibitor concentration required to cause a 50% inhibition of the enzyme activity (IC50) is determined.
Whether the nucleic acids shown by SEQ ID NO: 9 and 10 inhibit the enzyme activity of chymase was determined by the following method. Angiotensin I is converted by chymase to angiotensin II, during which a peptide fragment His-Leu is released. Since the peptide His-Leu is fluorescently derivatized by o-phthalaldehyde, its fluorescence intensity can be quantitatively measured.
The total volume of solution for an enzyme reaction in the assay was set to 50 μL, and the reaction was performed in solution C buffer. At first, native (manufactured by Calbiochem) was diluted with solution C to give 5 μL thereof. Here, the native is chymase purified from human skin mast cell. The nucleic acid was serially diluted with solution C at a concentration of 0.0027-2 μM to give 25 μL thereof. The chymase solution (5 μL) and the nucleic acid solution (25 μL) were mixed, and the mixture was incubated at 37° C. for 5 min. On the other hand, […] angiotensin I (manufactured by PEPTIDE INSTITUTE, INC.) was prepared in solution C to give 20 μL thereof, which was incubated at 37° C. for 5 min. The angiotensin I solution was added to a mixture of chymase and nucleic acid to start an enzyme reaction. The final chymase concentration of the reaction solution was 0.5 nM, and the final substrate concentration was 50 μM. […]

Row | Molecule | IC50
3 | 10 (nucleic acid) rGrGrGrArAfCrGrArArGfCrGrAfCrArGrAfCfCrGrArAfUfCrArGrArArGfUfUfCrArAfCrAfUrGrGrAfCrAfUrArAfCrAfUfCrGrAfUrGrGrGrGfUrGfUfCrArArGfUrAfCfUrGrAfCrGrAfCrArGrA | 0.43 nM
4 | 9 (nucleic acid) rGrGrGrArAfCrGrArArGfCrGrAfCrArGrAfCrGfUfUfCfCrArGfCrGfUfCfUrArAfUrAfCrGfUrGrArAfUrArAfCfCfUrGrAfUfCrGfUrArGrGrGrGrGfUfUfCrArArGfUrAfCfUrGrArGrGrAfCrArGrA | 0.22 nM

Same assay, conditions: Table 3; angiotensin I as substrate; mean of 2 or 3 measurements; >1 = no inhibitory activity up to 1 μM

Row | Molecule | IC50
5 | 12 (GACAUAACAUUGUUGGGGUGUC; 2'-fluoro at CU, RNA at AG, backbone not given here) [compound 12] | > 1000 nM
6 | 20 (GAUGAUCGGACAUAACAUUGUUGGGGUGUCA; 2'-fluoro at CU, RNA at AG, backbone not given here) [compound 20] | 1.8 nM

Same assay, conditions: Table 4; angiotensin I as substrate; mean of 2 or 3 measurements

Row | Molecule | IC50
7 | 17(4) (GAUGAUCGGACAUAACAUUGUUGGGGUGUCAA; aptamer; 2'-O-methyl, idT end and other modifications, positions not given here) | 0.2 nM
8 | 17(20) (GAUGAUCGGACAUAACAUUGUUGGGGUGUCAA; aptamer; 2'-O-methyl, idT end and other modifications, positions not given here) | 0.18 nM
9 | 17(11) (GAUGAUCGGACAUAACAUUGUUGGGGUGUCAA; aptamer; 2'-O-methyl, idT end and other modifications, positions not given here) | 0.14 nM
10 | 17(24) (GAUGAUCGGACAUAACAUUGUUGGGGUGUCAA; aptamer; 2'-O-methyl, idT end and other modifications, positions not given here) | 0.19 nM
11 | 17(17) (GAUGAUCGGACAUAACAUUGUUGGGGUGUCAA; aptamer; 2'-O-methyl, idT end and other modifications, positions not given here) | 0.19 nM

Same assay, conditions: Table 6; angiotensin I as substrate; mean of 2 or 3 measurements

Row | Molecule | IC50
12 | 33(6) (AUGAUCGGACAUAACUAAUUAGGGGUGUCAA; aptamer; modified variant with 2'-O-methyl and end modifications, pattern not given here) | 0.053 nM
13 | 33(12) (AUGAUCGGACAUAACUAAUUAGGGGUGUCAA; modification pattern variant (12), chemistry not fully specified) | 0.048 nM
14 | 33(11) (AUGAUCGGACAUAACUAAUUAGGGGUGUCAA; aptamer; modified variant with 2'-O-methyl and end modifications, pattern not given here) | 0.051 nM
15 | 33(13) (AUGAUCGGACAUAACUAAUUAGGGGUGUCAA; aptamer; modified variant with 2'-O-methyl and end modifications, pattern not given here) | 0.069 nM
16 | 33(10) (AUGAUCGGACAUAACUAAUUAGGGGUGUCAA; aptamer; modified variant with 2'-O-methyl and end modifications, pattern not given here) | 0.071 nM
17 | 33(17) (AUGAUCGGACAUAACUAAUUAGGGGUGUCAA; aptamer; modified variant with 2'-O-methyl and end modifications, pattern not given here) | 0.038 nM
18 | 33(7) (AUGAUCGGACAUAACUAAUUAGGGGUGUCAA; aptamer; modified variant with 2'-O-methyl and end modifications, pattern not given here) | 0.071 nM
19 | 33(1) (AUGAUCGGACAUAACUAAUUAGGGGUGUCAA; aptamer; modified variant with 2'-O-methyl and end modifications, pattern not given here) | 0.074 nM
